Experimental findings from patent US4610994A, “1,2,3-triazole anticonvulsant drugs” (priority 1984, dated 1986) are described below.

Data set [1] concerns maximal electro-shock seizure (MES) and subcutaneous pentylenetetrazole (Metrazole) seizure threshold (scMet). Put plainly: Phase I anticonvulsant screening (MES test and scMet test). Type of data set: in vivo, mouse. The following applies: for signs of neurological deficit: at effective dose levels (Class I) or 300 mg/kg (8, 13); for Anticonvulsant Activity Group Classification: mouse, MES and scMet tests, doses up to 300 mg/kg; for protection: 300 mg/kg.

The nature of data set [2]: in vivo. The note with it: mouse, ip.
Data set [3] in a line: in vivo. The following applies: mouse, po.
Experimental: (§1) All animals were allowed free access to both food (S/L Custom Lab Diet-7) and water, except when they were removed from their cages for the experimental procedure.
(§2) The drugs were administered either orally or intraperitoneally in a volume of 0.01 ml/g body weight in mice and 0.04 ml/10 g in rats. All tests were conducted at the previously determined time of peak drug effect.
(§3) The profile of toxicity for each test drug was established by the following procedures: Firstly, the minimal neurotoxic dose (TD50) was determined by the rotorod procedure at the time of peak neurotoxic effect. When a normal mouse is placed on a knurled rod one inch in diameter rotating at a speed of six rpm it can maintain its equilibrium for long periods of time. Neurological deficit is indicated by inability of the mouse to maintain its equilibrium for one minute in each of three trials on this rotating rod. Neurological deficit in rats is indicated by ataxia, loss of placing response and muscle tone.
The subject of data set [4] is maximal electroshock seizures. Put plainly: maximal electroshock seizure (MES) pattern test in mice. The note with it: for ED97: MES; for TPE: test not specified.
Experimental: as §1, §2
(§4) The profile of anticonvulsant activity for each substance was established by five tests: one electrical and four chemical. The electrical test employed was the maximal electroshock seizure pattern test. […] Except for the sc Strych Test, these tests measure the ability of anticonvulsants to afford complete protection against threshold seizures induced by the subcutaneous injection of the CD97 of the convulsant agent.
Data set [5] can be described thus: loss of righting reflex (HD50) in mice i.p. More on the design: species or system mice (male albino, CF No. 1).
Experimental: (§5) The profile of toxicity for each test drug was established by the following procedures: Firstly, the minimal neurotoxic dose (TD50) was determined by the rotorod procedure at the time of peak neurotoxic effect. When a normal mouse is placed on a knurled rod one inch in diameter rotating at a speed of six rpm it can maintain its equilibrium for long periods of time. Neurological deficit is indicated by inability of the mouse to maintain its equilibrium for one minute in each of three trials on this rotating rod. […] The HD50 represents the median dose at which 50% of animals lose their righting reflex.
Data set [6] can be described thus: Phase III toxicity profile (overt signs and symptoms) in mice i.p. The following applies: for Profile of acute toxicity, 1 x TD50: 1TD50; for Profile of acute toxicity, 2 x TD50: 2TD50; for Profile of acute toxicity, 4 x TD50: 4TD50.
Experimental: as §5
The subject of data set [7] is subcutaneous Picrotoxin seizures. Put plainly: subcutaneous Picrotoxin Seizure Threshold Test (sc Pic) in mice. Type of data set: in vivo, mice (male albino, CF No. 1). The note with it: mice i.p., Compound 10 up to 300 mg/kg.
Experimental: as §1, §2, §4
(§6) All convulsants were administered subcutaneously into a loose fold of skin on the back of the neck in a volume of 0.01 ml/g body weight in mice; Metrazol was injected in a volume of 0.02 ml/10 g body weight in rats. The convulsant drugs were administered at the previously determined time of peak anticonvulsant action of the drug under study. […] Except for strychnine, absence of a five-second episode of clonic spasms (threshold seizure) was taken as protection. In the case of strychnine, complete abolition of the hindleg tonic extension was taken as protection.
The test system of data set [8] is subcutaneous Metrazol seizures. Put plainly: subcutaneous Metrazol Seizure Threshold Test (sc Met) in mice. The note with it: mice; for ED97: sc Met.
Experimental: as §1, §2, §4, §6
Data set [9] relates to subcutaneous Bicuculline seizures. Put plainly: subcutaneous Bicuculline Seizure Threshold Test (sc Bic) in mice. Type of data set: in vivo, mice (male albino, CF No. 1). The note with it: mice i.p., Compound 10 up to 300 mg/kg.
Experimental: as §1, §2, §4, §6
For data set [10], the system named is subcutaneous Strychnine seizures. In kind it is in vivo, mice (male albino, CF No. 1). The following applies: for effectiveness by the sc Strych test: mice i.p., Compound 10 up to 300 mg/kg.
Experimental: as §1, §2, §4, §6
For data set [11], the system named is maximal electroshock seizures. Put plainly: maximal electroshock seizure (MES) pattern test in rats.
Experimental: as §1, §2, §4
The subject of data set [12] is subcutaneous Metrazol seizures. Put plainly: subcutaneous Metrazol Seizure Threshold Test (sc Met) in rats. The note with it: oral, sc Met.
Experimental: as §1, §2, §4, §6
The nature of data set [13]: minimal neurotoxicity (ataxia, loss of placing response and muscle tone) in rats. The following applies: rats, oral.
Experimental: as §1, §2, §3
The format of data set [14] is in vivo. The following applies: mice, subcutaneous.
Text: as §4
Setting [15] is: mice, i.p., 95% confidence interval.

Where “and” joins values, the source holds several entries; their conditions need not be identical. Equal entries are not always repeated. Entries after “also recorded” stand apart in the source; their conditions may differ. Where two headings read alike, the source gives them in different places.
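For Rotorod TD50 in this document: mice on rotorod: neurological deficit scored when the animal cannot keep balance for 1 min in every one of three trials on a 1-inch knurled rod turning at 6 rpm.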

For the molecule `Clc1ccc(-n2nncc2-c2ccccc2)cc1` [Compound 1, 1-(p-Chlorophenyl)-5-phenyl-1H--1,2,3-triazole], the “signs of neurological deficit” value in data set [1] was “do not exhibit significant signs of neurological deficit”.

As for `Brc1ccc(-n2nncc2-c2ccccc2)cc1` [Compound 2, 1-(p-Bromophenyl)-5-phenyl-1H--1,2,3-triazole], the “signs of neurological deficit” value in data set [1] was “do not exhibit significant signs of neurological deficit”.

Consider `c1ccc(-n2nncc2-c2ccncc2)cc1` [Compound 3, 1-Phenyl-5-(4-pyridyl)-1H--1,2,3-triazole], for which, in data set [1], the “signs of neurological deficit” value was “do not exhibit significant signs of neurological deficit”.

`Fc1ccc(-n2nncc2-c2ccncc2)cc1` [Compound 4, 1-(p-Fluorophenyl)-5-(4-pyridyl)-1H--1,2,3-triazole]: the “Anticonvulsant Activity Group Classification” value in [1] was “II (Class II compounds show anticonvulsant activity at doses greater than 100 mg/kg or show activity at 100 mg/kg which is not reinforced by similar activity at 300 mg/kg)”.

Take `Cc1ccc(-n2nncc2-c2ccncc2)cc1` [Compound 5, 1-(p-Tolyl)-5-(4-pyridyl)-1H--1,2,3-triazole]: in data set [1], the “Anticonvulsant Activity Group Classification” value is on record as “II (Class II compounds show anticonvulsant activity at doses greater than 100 mg/kg or show activity at 100 mg/kg which is not reinforced by similar activity at 300 mg/kg)”.

Regarding `COc1ccc(-n2nncc2-c2ccncc2)cc1` [Compound 6, 1-(p-Anisyl)-5-(4-pyridyl)-1H--1,2,3-triazole], the “Anticonvulsant Activity Group Classification” value in data set [1] is listed as “II (Class II compounds show anticonvulsant activity at doses greater than 100 mg/kg or show activity at 100 mg/kg which is not reinforced by similar activity at 300 mg/kg)”.

As for `Clc1ccc(-n2nncc2-c2ccncc2)cc1Cl` [Compound 8, 1-(3,4-Dichlorophenyl)-5-(4-pyridyl)-1H--1,2,3-triazole], in data set [1], the protection was determined as 100%, the “signs of neurological deficit” value is “without any signs of neurological deficit” and the “Anticonvulsant Activity Group Classification” value was “II (Class II compounds show anticonvulsant activity at doses greater than 100 mg/kg or show activity at 100 mg/kg which is not reinforced by similar activity at 300 mg/kg)”.

For `Brc1ccc(-n2nncc2-c2cccnc2)cc1` [Compound 11, 1-(p-bromophenyl)-5-(3-pyridyl)-1H-1,2,3-triazole], in [1], the “signs of neurological deficit” value is listed as “do not exhibit significant signs of neurological deficit”.

On to `Fc1ccc(-n2nncc2-c2cccnc2)cc1` [Compound 12, 1-(p-Fluorophenyl)-5-(3-pyridyl)-1H--1,2,3-triazole], for which, in data set [1], the “signs of neurological deficit” value was “do not exhibit significant signs of neurological deficit”.

On to `Clc1ccc(-n2nncc2-c2cccnc2)cc1Cl` [Compound 13, 1-(3,4-Dichlorophenyl)-5-(3-pyridyl)-1H--1,2,3-triazole], for which, in data set [1], the protection is reported as 100%, the “signs of neurological deficit” value is listed as “without any signs of neurological deficit” and the “Anticonvulsant Activity Group Classification” value is reported as “II (Class II compounds show anticonvulsant activity at doses greater than 100 mg/kg or show activity at 100 mg/kg which is not reinforced by similar activity at 300 mg/kg)”.

As to `Clc1ccc(-n2nncc2-c2ccccn2)cc1` [Compound 14, 1-(p-Chlorophenyl)-5-(2-pyridyl)-1H--1,2,3-triazole], the “signs of neurological deficit” value in data set [1] was “do not exhibit significant signs of neurological deficit”.

As to `Cc1cccc(-n2nncc2-c2ccncc2)c1` [Compound 17, 1-(m-Tolyl)-5-(4-pyridyl)-1H--1,2,3-triazole], the “Anticonvulsant Activity Group Classification” value in data set [1] is reported as “II (Class II compounds show anticonvulsant activity at doses greater than 100 mg/kg or show activity at 100 mg/kg which is not reinforced by similar activity at 300 mg/kg)”.

Take `FC(F)(F)c1ccc(-n2nncc2-c2cccnc2)cc1` [Compound 19, 1-(p-Trifluoromethylphenyl)-5-(3-pyridyl)-1H--1,2,3-triazole]: in data set [1], the “Anticonvulsant Activity Group Classification” value is reported as “II (Class II compounds show anticonvulsant activity at doses greater than 100 mg/kg or show activity at 100 mg/kg which is not reinforced by similar activity at 300 mg/kg)”.

`CCC1(C)CC(=O)NC1=O` (stereo not drawn) [Ethosuximide]: in data set [2], the LD50 at 24 h came out at 1750 mg/kg. Besides, the TD50 in data set [3] is 879 mg/kg; the TD50 in [5] (mouse, in vivo, ip, HD50 (righting reflex)) came to 851 mg/kg; the TD50 (mouse, in vivo, po) is listed as 879,21 mg/kg. The “protection from maximal electroshock seizures” value in [4] (mice, i.p.) was “not able to protect mice from maximal electroshock seizures”. Also, in data set [4] (setting [15]), the “MES ED50” value is recorded as over 1000 mg/kg. Besides, the “HD50 (righting reflex)” value in [5] (mouse, in vivo, ip) is 850.61(751.19-917.93) mg/kg. In data set [6], the “Profile of acute toxicity, 1 x TD50” value was “Uncoordinated”. Further, the “Profile of acute toxicity, 2 x TD50” value in data set [6] is “Uncoordinated”. In addition, in data set [6], the “Profile of acute toxicity, 4 x TD50” value was “Uncoordinated”. In [7], the “effectiveness by the sc Pic test” value was “effective”. The “effectiveness by the sc Met test” value in data set [8] (i.p.) was “effective”. Further, the “sc Met ED50” value in data set [8] (i.p., 95% confidence interval) was 130.35 mg/kg and 130.35(110.99-150.45) mg/kg; in data set [8] (p.o.) it was 192.21 mg/kg. In addition, the “Rotorod TD50” value runs as follows: under setting [15], 440.83(383.09-485.34) mg/kg; (mice, i.p., 95% confidence interval, listed as ethosuximide) 440.83 mg/kg; (mouse, in vivo, ip) 44,.83(383.09-485.34) mg/kg. Besides, the “effectiveness by the sc Bic test” value in data set [9] is “had to be given in toxic doses to protect against sc Bic seizures”. Also, the “animals protected in the sc Strych test” value in data set [10] (mice, i.p.) was at most 62%.

Turning to `CCC1(c2ccccc2)C(=O)NC(=O)NC1=O` [Phenobarbital], the ED97 in data set [11] (Rattus norvegicus, po) was determined as 26 mg/kg; in data set [12] it was 34; in [4] (mice, i.p.), 29; in data set [4] (mice, oral) it was 46; in data set [8] (i.p.), 27; in data set [8] (oral), 38. Besides, the TPE result in data set [11] (rats p.o., test not specified) is given as “five”. Further, in data set [6], the “Profile of acute toxicity, 1 x TD50” value is given as “Ataxia with in-”. Further, the “Profile of acute toxicity, 2 x TD50” value in data set [6] is recorded as “Ataxia with in-”. Also, the “effectiveness by the sc Pic test” value in [7] is “effective by all four anticonvulsant tests”; in [7] (listed as phenobarbital), “effective by these tests”. Further, the TD3 (mice, i.p., MES) is given as 57; the TD3 (mice, i.p., sc Met) is 57; the TD3 (mice, oral, MES) turned out to be 58; the TD3 (mice, oral, sc Met) is recorded as 58; the TD3 in data set [13] (MES) worked out at 14; the TD3 in data set [13] (sc Met) is on record as 14. Besides, the “effectiveness by the sc Bic test” value in [9] is “effective by all four anticonvulsant tests”; in [9] (listed as phenobarbital), “effective by these tests”. The “effectiveness by the sc Strych test” value in data set [10] is reported as “had to be given in toxic doses in order to protect against this chemical convulsant”; in data set [10] (listed as phenobarbital) it was “effective by these tests”.

For `CCCC(CCC)C(=O)O` [Valproate], the ED97 in [12] was 188; in data set [4] (mice, i.p.), 380; in data set [4] (mice, oral) it was 840; in data set [8] (i.p.), 218; in data set [8] (oral) it was 680. Besides, the TPE result was “one-fourth” in data set [4] (mice i.p.) and “one to two” in data set [4] (mice p.o.). For the same molecule, the “MES ED50” value is on record as 271.66(246.97-337.89) mg/kg in [4] (setting [15]); 271.66 mg/kg in data set [4] (mice, i.p., 95% confidence interval, listed as valproate); 664.80 mg/kg in [4] (mice, p.o.). Further, the “HD50 (righting reflex)” value in [5] (setting [15]) is 885.53 mg/kg and 885.53(820.86-947.04) mg/kg. In data set [5] (mouse, in vivo, ip, mice, i.p., 95% confidence interval, read-out: HD50 (righting reflex)), the TD50 was 886 mg/kg. For the same molecule, in data set [6], the “Profile of acute toxicity, 1 x TD50” value was “Mild ataxia”. Besides, the “Profile of acute toxicity, 2 x TD50” value in data set [6] is “Ataxia”. The “Profile of acute toxicity, 4 x TD50” value in data set [6] is “Both animals died”. Moreover, the “effectiveness by the sc Pic test” value in data set [7] is on record as “effective by all four anticonvulsant tests; also recorded: effective by these tests”. The “effectiveness by the sc Met test” value in data set [8] (i.p.) is “effective by all four anticonvulsant tests”. Besides, the “sc Met ED50” value in [8] (i.p., 95% confidence interval) was 148.59(122.64-177.02) mg/kg; in [8] (p.o.), 388.31 mg/kg. The molecule further displayed a TD3 (mice, i.p., MES) of 345; a TD3 (mice, i.p., sc Met) of 345; a TD3 (mice, oral, MES) of 500; a TD3 (mice, oral, sc Met) of 500; a TD3 in [13] (MES) of 115; a TD3 in [13] (sc Met) of 115. Further, the “effectiveness by the sc Bic test” value in data set [9] was “effective by all four anticonvulsant tests; also recorded: effective by these tests”. The “effectiveness by the sc Strych test” value in data set [10] is “effective against strychnine in nontoxic doses; also recorded: effective by these tests”.

Take `CN1CCc2cc3c(cc2[C@H]1[C@@H]1OC(=O)c2c1ccc1c2OCO1)OCO3` [bicuculline]: the “sc CD97” value in [14] is on record as 2.70 mg/kg.

Regarding `O=C1C[C@@H]2OCC=C3CN4CC[C@]56c7ccccc7N1[C@H]5[C@H]2[C@H]3C[C@H]46` [strychnine], the “sc CD97” value in data set [14] is reported as 1.20 mg/kg.

Consider picrotoxin, for which, in data set [14], the “sc CD97” value is reported as 3.15 mg/kg.
